This is an account of results in the SangsterLogP compilation.

The nature of this series: method code SF, from PMID: 1610484. The conditions noted are these: for logD: pH 7.4.

The term logP denotes a log measure of how a compound divides between an organic and an aqueous phase. Regarding `CSCCCNC(=O)Cn1cnc([N+](=O)[O-])n1`, the log partition coefficient (logP) was found to be 0.26. Molecule `COCCNC(=O)CCn1cnc([N+](=O)[O-])n1` returned a logP of -0.65. As usually defined, the logD is the decadic logarithm of the distribution of all forms, ionised or not, between an organic phase and buffer at a given pH. Low readings indicate lower lipophilicity, high ones higher lipophilicity. The molecule `COCCNC(=O)Cn1cnc([N+](=O)[O-])n1` had a logD of -0.77. The molecule `COCCNC(=O)C(F)(F)Cn1cnc([N+](=O)[O-])n1` came in with a logP of -0.29. `COCCCNC(=O)Cn1cnc([N+](=O)[O-])n1` gave a logD of -0.51.

`COCCCNC(=S)Cn1cnc([N+](=O)[O-])n1` registered a logP of 0.63. The molecule `CSCCCNC(=O)C(F)(F)Cn1cnc([N+](=O)[O-])n1` registered a logP of 0.76. This logP and that of the molecule before are within 0.2 log units of each other. `O=C(NCCCO)C(F)(F)Cn1cnc([N+](=O)[O-])n1` registered a log partition coefficient (logP) of -0.63. Still for that read-out and setting: the result for `COCCCNC(=O)C(F)(F)Cn1cnc([N+](=O)[O-])n1` reads 0.01; that for `COCCNC(=S)Cn1cnc([N+](=O)[O-])n1`, 0.25; that for `CSCCNC(=O)CCn1cnc([N+](=O)[O-])n1`, -0.07. For the molecule `CSCCNC(=O)C(F)(F)Cn1cnc([N+](=O)[O-])n1`, the logP is 0.4. On the same count and under the same terms, the same measure for `O=C(Cn1cnc([N+](=O)[O-])n1)NCCO`: -1.37; for `CSCCNC(=O)Cn1cnc([N+](=O)[O-])n1`: -0.1.
